In the NIST ThermoML archive (doi:10.1016/j.jct.2016.06.023):

Assay: mn = molality of the nth substance listed, in mol/kg
Settings: 101.3 kPa, Liquid, Vibrating tube method

O=C(O)CC(=O)O [propanedioic acid] + O
mass density [kg/m3]
Settings | 313.15 K | 318.15 K | 323.15 K | 328.15 K | 333.15 K | 338.15 K | 343.15 K
m1 = 0.01001 | 992.67 | 990.67 | 988.48 | 986.12 | 983.63 | 980.99 | 978.22
m1 = 0.02001 | 993.03 | 991.04 | 988.85 | 986.5 | 984.01 | 981.37 | 978.59
m1 = 0.03 | 993.37 | 991.39 | 989.19 | 986.83 | 984.34 | 981.69 | 978.9
m1 = 0.03962 | 993.74 | 991.75 | 989.54 | 987.17 | 984.68 | 982.03 | 979.24
m1 = 0.04998 | 994.12 | 992.09 | 989.92 | 987.55 | 985.05 | 982.41 | 979.6
m1 = 0.05936 | 994.45 | 992.44 | 990.24 | 987.86 | 985.36 | 982.72 | 979.92
m1 = 0.06926 | 994.8 | 992.8 | 990.58 | 988.21 | 985.69 | 983 | 980.22
m1 = 0.07949 | 995.16 | 993.16 | 990.94 | 988.56 | 986.05 | 983.39 | 980.58
m1 = 0.08906 | 995.51 | 993.49 | 991.26 | 988.89 | 986.37 | 983.68 | 980.9
m1 = 0.09935 | 995.86 | 993.83 | 991.63 | 989.26 | 986.72 | 984.02 | 981.18
m1 = 0.1984 | 999.32 | 997.27 | 995 | 992.58 | 990.02 | 987.31 | 984.49
m1 = 0.2977 | 1002.76 | 1000.66 | 998.36 | 995.89 | 993.31 | 990.55 | 987.71
m1 = 0.404 | 1006.4 | 1004.17 | 1001.82 | 999.32 | 996.78 | 993.95 | 991.05
m1 = 0.5055 | 1009.9 | 1007.57 | 1005.17 | 1002.63 | 999.91 | 997.16 | 994.29
m1 = 0.6055 | 1013.17 | 1010.78 | 1008.36 | 1005.78 | 1003.1 | 1000.24 | 997.39
m1 = 0.6936 | 1016.02 | 1013.61 | 1011.15 | 1008.54 | 1005.81 | 1002.93 | 1000.21
m1 = 0.7926 | 1019.25 | 1016.73 | 1014.23 | 1011.64 | 1008.99 | 1006 | 1002.97
m1 = 0.891 | 1022.41 | 1019.67 | 1017.35 | 1014.68 | 1011.89 | 1008.94 | 1005.93
m1 = 0.9895 | 1025.39 | 1022.8 | 1020.22 | 1017.49 | 1014.63 | 1011.16 | 1008.49
